In BindingDB's records for doi:10.7270/Q24748BK (Burnham Center For Chemical Genomics, 2010):

Biological target: T1, Tyrosine-protein phosphatase non-receptor type 22 (Homo sapiens, UniProt Q9Y2R2)
T1 sequence (Q9Y2R2 whole entry): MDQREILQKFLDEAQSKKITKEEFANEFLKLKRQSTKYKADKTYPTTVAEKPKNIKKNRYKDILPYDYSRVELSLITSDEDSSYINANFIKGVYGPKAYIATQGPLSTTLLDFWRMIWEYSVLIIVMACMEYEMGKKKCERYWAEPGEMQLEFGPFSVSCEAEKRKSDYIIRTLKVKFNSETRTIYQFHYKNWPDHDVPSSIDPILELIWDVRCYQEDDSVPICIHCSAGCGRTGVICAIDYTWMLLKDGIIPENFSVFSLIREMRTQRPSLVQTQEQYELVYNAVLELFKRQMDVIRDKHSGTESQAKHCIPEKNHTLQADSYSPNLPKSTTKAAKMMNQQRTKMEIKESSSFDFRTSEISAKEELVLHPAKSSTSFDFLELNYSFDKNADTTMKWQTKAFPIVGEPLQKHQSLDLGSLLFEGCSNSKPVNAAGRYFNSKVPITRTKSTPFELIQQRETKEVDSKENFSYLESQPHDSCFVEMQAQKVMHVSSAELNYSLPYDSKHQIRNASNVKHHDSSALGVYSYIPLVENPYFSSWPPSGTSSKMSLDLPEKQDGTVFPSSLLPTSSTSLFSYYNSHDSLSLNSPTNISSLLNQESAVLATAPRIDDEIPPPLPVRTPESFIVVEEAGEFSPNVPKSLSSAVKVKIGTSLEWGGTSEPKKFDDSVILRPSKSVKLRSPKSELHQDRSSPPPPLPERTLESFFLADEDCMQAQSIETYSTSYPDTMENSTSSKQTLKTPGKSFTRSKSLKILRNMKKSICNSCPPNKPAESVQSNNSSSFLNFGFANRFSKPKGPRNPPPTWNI
Test: concentration-dependent PTPN22 LYP inhibition – biochemical, pCAP substrate, fluorescence intensity, dose response (AID 435027)

Structure (SMILES)	IC50
Cc1ccc(NN=C2C(=O)N(CN3CCOCC3)c3ccccc32)cc1 [(3Z)-3-[(4-methylphenyl)hydrazinylidene]-1-(4-morpholinylmethyl)-2-indolone]	> 79.4 µM
CCOC(=O)NC(=O)C(C=Nc1ccc(C)cc1)C(=O)NC(=O)OCC [ethyl 2-{[(ethoxycarbonyl)amino]carbonyl}-3-(4-toluidino)acryloylcarbamate]	> 79.4 µM
O=C1C([N+](=O)[O-])=CC(Br)=CC1/C=N/n1cnnc1 (stereo not given) [MLS000714804]	> 79.4 µM
N=C(NN=Cc1ccc2c(c1)OCO2)Sc1cc(O)n(-c2ccc(C(=O)O)cc2)c1O [4-(3-{[[(2E)-2-(1,3-benzodioxol-5-ylmethylene)hydrazino](imino)methyl]thio}-2,5-dioxopyrrolidin-1-yl)benzoic acid]	7.65 µM
COC1=CC=CC(/C=N/NC(=O)c2cc3cc([N+](=O)[O-])ccc3s2)C1=O (stereo not given) [SMR000237814]	15.7 µM
